This is an account of results in US20240189235A1, “CATIONIC LIPIDS AND USES THEREOF” (MELLO BIOTECH TAIWAN CO., LTD., priority 2022, published 2024).

The subject of this data set is Cy5-mir302a-siRNA. As to the kind of experiment: Encapsulation efficiency of LNPs for small RNAs (RiboGreen fluorescence). In kind it is physicochemical. The following applies: Table 1 in words. The method, then: To produce the present composition, the present cationic lipids (compound 6 or 22), cholesterol, DEG-PEG 2000, and distearoylphosphatidylcholine (DSPC) were fully mixed in ethanol at a molar ratio of 50:38.5:1.5:10, and the total volume was brought to 500 μL, thereby producing a liquid formulation of lipid nanoparticles (LNPs). As for control group, D-lin-MC3-DMA (MC30), an ionizable amino lipid that conventionally used in LNPs preparation, was mixed with cholesterol, DEG-PEG 2000, and DSPC at the same molar ratio as the present LNPs. […]
The encapsulation ratio of liposomes for encapsulating miRNAs or siRNAs was determined by fluorescence reader (Infinite F200 Pro) with the aid of RNA quantification kit containing a fluorescent dye (RiboGreen). […] The cationic lipid-RNA complexes (typically with a total volume of 50 μL for each sample well) were then mixed with the reagent from the RNA quantification kit in each well. […] The amount of miRNAs or siRNAs were quantified by interpolating their […] at 535 nm to that of the standard curve, and the encapsulation efficiency (EE) was calculated by the following formula: […]
where Wt is the total amount of miRNAs or siRNAs released in the LNPs lysis suspension, and Wi is the total quantity of miRNAs or siRNAs added initially during preparation. […]

Consider `CCCCCC/C=C\CCCCCCCC(=O)NCC(=O)OCC(COC(=O)CN)OC(=O)CNC(=O)CCCCCCC/C=C\CCCCCC` (centres unmarked) [Compound 22, (Z)-3-(2-aminoacetoxy)propane-1,2-diyl bis(2-((Z)-hexadec-9-enamido)acetate)], for which the “Liposome formation and siRNA encapsulation” value was “successfully formed liposomes and encapsulated siRNAs therein”. To `CCCCC/C=C\C/C=C\CCCCCCCC(=O)NCC(=O)OC(COC(=O)CN)COC(=O)CN` [Compound 6, 2-(2-((9Z,12Z)-octadeca-9,12-dienamido)acetoxy)propane-1,3-diyl bis(2-aminoacetate)] belongs “successfully formed liposomes and encapsulated siRNAs therein”.
